# Assay results as given in article PMC3904705, “In vivo monoubiquitination of anaplerotic phosphoenolpyruvate carboxylase occurs at Lys624 in germinating sorghum seeds” (Journal of Experimental Botany, 2013).
# Where two headings read alike, the source gives them in different places.
# T1: DeUB-PEPC (in vitro deubiquitinated p107 homotetrameric PEPC of germinating sorghum seeds; CP21) (Sorghum bicolor, UniProt P29195)
# T1 construct: p107 homotetramer; not phosphorylated at Ser7
# T1 sequence (P29195 1-960): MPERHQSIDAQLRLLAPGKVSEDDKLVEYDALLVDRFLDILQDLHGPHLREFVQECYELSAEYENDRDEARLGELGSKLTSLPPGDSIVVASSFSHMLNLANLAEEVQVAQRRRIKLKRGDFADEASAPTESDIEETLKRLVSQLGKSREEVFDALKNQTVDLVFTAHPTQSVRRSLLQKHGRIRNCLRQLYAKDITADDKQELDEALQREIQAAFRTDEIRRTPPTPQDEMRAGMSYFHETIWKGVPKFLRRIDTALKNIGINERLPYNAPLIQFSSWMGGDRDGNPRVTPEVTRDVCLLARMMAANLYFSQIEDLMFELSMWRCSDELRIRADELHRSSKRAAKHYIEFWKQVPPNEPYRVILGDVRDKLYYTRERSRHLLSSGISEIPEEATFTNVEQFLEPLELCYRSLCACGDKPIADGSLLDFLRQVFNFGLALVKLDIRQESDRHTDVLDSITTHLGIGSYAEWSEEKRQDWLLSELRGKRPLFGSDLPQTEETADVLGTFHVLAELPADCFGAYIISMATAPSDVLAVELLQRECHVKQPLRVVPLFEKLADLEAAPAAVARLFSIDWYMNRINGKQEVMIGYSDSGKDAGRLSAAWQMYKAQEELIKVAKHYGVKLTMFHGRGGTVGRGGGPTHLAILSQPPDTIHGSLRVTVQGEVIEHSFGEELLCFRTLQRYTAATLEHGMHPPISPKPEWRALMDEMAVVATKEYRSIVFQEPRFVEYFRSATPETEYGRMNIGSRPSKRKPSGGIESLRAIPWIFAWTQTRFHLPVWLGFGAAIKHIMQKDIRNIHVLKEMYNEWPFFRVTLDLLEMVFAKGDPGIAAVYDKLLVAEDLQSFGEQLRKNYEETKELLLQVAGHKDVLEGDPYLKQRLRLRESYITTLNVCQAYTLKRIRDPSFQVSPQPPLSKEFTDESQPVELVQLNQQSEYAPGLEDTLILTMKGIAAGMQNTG
# T2: UB-PEPC (purified monoubiquitinated p110:p107 heterotetrameric PEPC of germinating sorghum seeds; CP21) (Sorghum bicolor, UniProt P29195)
# T2 construct: native, purified from 48 h germinated seeds, untagged; intact N-terminus, not phosphorylated at Ser7; heterotetramer ~460 kDa of p110 and p107 in equivalent ratio; p110 = p107 monoubiquitinated at Lys624
# T2 sequence (P29195 1-960): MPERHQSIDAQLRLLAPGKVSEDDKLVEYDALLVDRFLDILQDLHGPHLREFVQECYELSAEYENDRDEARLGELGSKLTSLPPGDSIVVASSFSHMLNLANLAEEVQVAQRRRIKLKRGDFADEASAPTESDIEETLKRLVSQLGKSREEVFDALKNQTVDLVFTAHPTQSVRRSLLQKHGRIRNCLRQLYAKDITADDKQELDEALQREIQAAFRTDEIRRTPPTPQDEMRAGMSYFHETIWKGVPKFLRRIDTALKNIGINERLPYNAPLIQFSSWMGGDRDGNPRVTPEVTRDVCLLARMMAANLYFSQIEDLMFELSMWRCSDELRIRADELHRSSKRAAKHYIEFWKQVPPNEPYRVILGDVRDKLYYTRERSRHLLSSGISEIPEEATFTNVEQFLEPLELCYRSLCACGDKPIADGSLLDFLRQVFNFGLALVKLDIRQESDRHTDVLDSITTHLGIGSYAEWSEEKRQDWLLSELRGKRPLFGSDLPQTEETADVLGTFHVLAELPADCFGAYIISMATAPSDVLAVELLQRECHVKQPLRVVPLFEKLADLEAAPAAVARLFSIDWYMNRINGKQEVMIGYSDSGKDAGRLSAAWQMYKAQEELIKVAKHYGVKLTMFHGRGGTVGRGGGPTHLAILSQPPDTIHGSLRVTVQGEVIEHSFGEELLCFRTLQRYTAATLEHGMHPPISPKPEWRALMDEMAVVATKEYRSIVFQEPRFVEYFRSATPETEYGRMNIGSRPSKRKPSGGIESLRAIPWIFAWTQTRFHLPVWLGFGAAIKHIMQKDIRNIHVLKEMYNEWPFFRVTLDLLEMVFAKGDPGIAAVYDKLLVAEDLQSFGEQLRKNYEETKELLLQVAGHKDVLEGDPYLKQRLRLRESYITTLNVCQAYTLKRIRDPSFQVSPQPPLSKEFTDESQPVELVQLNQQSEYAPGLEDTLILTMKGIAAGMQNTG
# B1: DeUB-PEPC (in vitro deubiquitinated p107 homotetrameric PEPC of germinating sorghum seeds; CP21) (Sorghum bicolor) (protein)
# chain: MPERHQSIDAQLRLLAPGKVSEDDKLVEYDALLVDRFLDILQDLHGPHLREFVQECYELSAEYENDRDEARLGELGSKLTSLPPGDSIVVASSFSHMLNLANLAEEVQVAQRRRIKLKRGDFADEASAPTESDIEETLKRLVSQLGKSREEVFDALKNQTVDLVFTAHPTQSVRRSLLQKHGRIRNCLRQLYAKDITADDKQELDEALQREIQAAFRTDEIRRTPPTPQDEMRAGMSYFHETIWKGVPKFLRRIDTALKNIGINERLPYNAPLIQFSSWMGGDRDGNPRVTPEVTRDVCLLARMMAANLYFSQIEDLMFELSMWRCSDELRIRADELHRSSKRAAKHYIEFWKQVPPNEPYRVILGDVRDKLYYTRERSRHLLSSGISEIPEEATFTNVEQFLEPLELCYRSLCACGDKPIADGSLLDFLRQVFNFGLALVKLDIRQESDRHTDVLDSITTHLGIGSYAEWSEEKRQDWLLSELRGKRPLFGSDLPQTEETADVLGTFHVLAELPADCFGAYIISMATAPSDVLAVELLQRECHVKQPLRVVPLFEKLADLEAAPAAVARLFSIDWYMNRINGKQEVMIGYSDSGKDAGRLSAAWQMYKAQEELIKVAKHYGVKLTMFHGRGGTVGRGGGPTHLAILSQPPDTIHGSLRVTVQGEVIEHSFGEELLCFRTLQRYTAATLEHGMHPPISPKPEWRALMDEMAVVATKEYRSIVFQEPRFVEYFRSATPETEYGRMNIGSRPSKRKPSGGIESLRAIPWIFAWTQTRFHLPVWLGFGAAIKHIMQKDIRNIHVLKEMYNEWPFFRVTLDLLEMVFAKGDPGIAAVYDKLLVAEDLQSFGEQLRKNYEETKELLLQVAGHKDVLEGDPYLKQRLRLRESYITTLNVCQAYTLKRIRDPSFQVSPQPPLSKEFTDESQPVELVQLNQQSEYAPGLEDTLILTMKGIAAGMQNTG
# notes: p107 homotetramer; not phosphorylated at Ser7
# Assays:
# [1] = biological target: T1, DeUB-PEPC (in vitro deubiquitinated p107 homotetrameric PEPC of germinating sorghum seeds; CP21); experiment: biochemical; parameters: PEPC activity of purified enzyme with 2 mM metabolite effector at subsaturating 0.1 mM PEP, relative to control; details: pH 7.3, 0.1 mM PEP; for remaining activity at 2000 µM: read-out: % of control remaining
# Description: (§1) The impact of various metabolite effectors (2mM each) on the activity of the purified, monoubiquitinated heterotetrameric sorghum seed PEPC (UB-PEPC) versus the in vitro deubiquitinated homotetrameric enzyme (deUB-PEPC) was assessed using suboptimal assay conditions (0.1mM PEP, pH 7.3 and 8.0). With the exception of L-malate, monoubiquitination of germinating sorghum seed PEPC (CP21) exerted little to no influence in the response to the metabolites tested (Supplementary Table S2 at JXB online). […] In addition, the K m(PEP) value of UB-PEPC appeared to be slightly higher than that of deUB-PEPC, although the differences were not statistically significant (Table 1). Similarly, monoubiquitination of COS and harsh hakea Class-1 PEPCs is inhibitory, as it enhances sensitivity to allosteric inhibitors such as L-malate and L-aspartate, while interfering with the enzyme’s ability to bind PEP ([Uhrig et al., 2008]; [Shane et al., 2013]). Apparent K m and IC50 (concentration of inhibitor producing 50% inhibition) values were calculated using a computer kinetics program as previously described ([Tripodi et al., 2005]). All kinetic parameters are the means of three independent experiments and are reproducible to within ±15% (SE) of the mean value. Stock solutions of metabolites were made equimolar with MgCl2 and adjusted to pH 7.5.
# [2] = biological target: T1, DeUB-PEPC (in vitro deubiquitinated p107 homotetrameric PEPC of germinating sorghum seeds; CP21); experiment: biochemical; parameters: PEPC activity with 2 mM metabolite at subsaturating 0.1 mM PEP, as per cent of control; details: pH 8.0, 0.1 mM PEP; for remaining activity at 2000 µM: read-out: % of control remaining
# Description: as §1
# [3] = biological target: T2, UB-PEPC (purified monoubiquitinated p110:p107 heterotetrameric PEPC of germinating sorghum seeds; CP21); experiment: biochemical; parameters: PEPC activity of purified enzyme with 2 mM metabolite effector at subsaturating 0.1 mM PEP, relative to control; details: pH 7.3, 0.1 mM PEP; read-out: % of control remaining
# Description: as §1
# [4] = biological target: T2, UB-PEPC (purified monoubiquitinated p110:p107 heterotetrameric PEPC of germinating sorghum seeds; CP21); experiment: biochemical; parameters: PEPC activity with 2 mM metabolite at subsaturating 0.1 mM PEP, as per cent of control; details: pH 8.0, 0.1 mM PEP; read-out: % of control remaining
# Description: as §1
# [5] = biological target: T1, DeUB-PEPC (in vitro deubiquitinated p107 homotetrameric PEPC of germinating sorghum seeds; CP21); experiment: spectrophotometric, NADH at […] nm, coupled with malate dehydrogenase; format: biochemical; details: read-out: pH 7.3 / DeUB-PEPC
# [6] = biological target: p107, non-ubiquitinated 107 kDa plant-type PEPC (PTPC) subunit encoded by sorghum CP21 (Sorghum bicolor (endogenous in germinated seeds)) (UniProt P29195); experiment: SEC; Superdex-200 HR 16/60 gel filtration FPLC (calibrated column) of native PEPC purified from 48 h germinated sorghum seeds, in buffer E (50 mM HEPES-KOH pH 8.0, 5 mM MgCl2, 1 mM DTT, 20% glycerol, 100 mM KCl, phosphatase inhibitors); fractions immunoblotted with anti-COS PTPC; native molecular mass estimated as ~460 kDa
# purified protein = substrate: C=C(OP(=O)(O)O)C(=O)O; experiment: purified protein; format: biochemical, Sorghum bicolor; details: pH 8.0, 25 °C, 5 mM NaHCO3, 5 mM MgCl2, apparent Km, deubiquitinated enzyme
Molecule,remaining activity at 2000 µM [1],remaining activity at 2000 µM [3],remaining activity at 2000 µM [2],remaining activity at 2000 µM [4],other results
Nc1ncnc2c1ncn2[C@@H]1O[C@H](COP(=O)(O)OP(=O)(O)OP(=O)(O)O)[C@@H](O)[C@H]1O [ATP],,,,,% of control remaining ([1]; 2000 µM): 88%; % of control remaining ([2]; 2000 µM): 111%
N[C@@H](CC(=O)O)C(=O)O [Aspartate],91%,94%,109%,109%,
O=P(O)(O)OC1O[C@H](CO)[C@@H](O)[C@H](O)[C@H]1O (stereo partly shown) [Glc-1-P],111%,115%,116%,116%,
O=P(O)(O)OC[C@H]1OC(O)[C@H](O)[C@@H](O)[C@@H]1O (stereo partly shown) [Glc-6-P],112%,127%,120%,121%,
O=P(O)(O)OCC(O)CO (stereo not shown) [Glycerol-3-P],108%,107%,120%,124%,
O=C(O)C[C@H](O)C(=O)O [L-malate],67%,53%,,,IC50 [5]: 3620 ± 240 µM
O=C(O)CC(O)C(=O)O (stereo not shown) [Malate],,,93%,93%,
O=C[C@H](O)[C@H](O)[C@H](O)COP(=O)(O)O [Ribose-5-P],98%,98%,105%,105%,
O=C(O)C[C@H](C(=O)O)[C@@H](O)C(=O)O [isocitrate],47%,47%,38%,38%,IC50 [5]: 1370 ± 120 µM
"p110, 110 kDa plant-type PEPC (PTPC) subunit encoded by sorghum CP21, monoubiquitinated at Lys624 (from UniProt P29195 1-960) (enzyme)",,,,,stoichiometry N (subunits in the oligomer) [6]: 4
B1,,,,,Km (purified protein): 36 ± 5 µM
